# Test results as given in US8778913B2, “Antimicrobial compositions for treating microbial infections” (priority 2006, dated 2014).
# Where two headings read alike, the source gives them in different places.
# Assays:
# [1] = test system: staphyloxanthin biosynthesis; conditions: earlier report; cited from earlier work
# [2] = test system: S. aureus; test: Singlet oxygen susceptibility assay; assay type: cell-based, Staphylococcus aureus
# Description: (§1) Tests for susceptibility to oxidants were performed either in PBS (S. aureus) or THB (S. pyogenes). Hydrogen peroxide (H2O2) was added to 1.5% final concentration, […] bacteria incubated at 37° C. for 1 h, then 1,000 U/ml of catalase (Sigma) added to quench residual H2O2. Dilutions were plated on THA for enumeration of surviving cfu. For the singlet oxygen assay, 10^8 S. aureus or 4×10^8 S. pyogenes were incubated at 37° C. in individual wells of a 24-well culture plate in the presence or absence of 1-6 μg/ml methylene blue and situated exactly 10 cm from a 100-watt light source. Bacterial viability was assessed after 1-3 h by plating dilutions on THA.
# [3] = test system: staphyloxanthin biosynthesis; test: S. aureus pigment (staphyloxanthin) formation; assay type: cell-based, Staphylococcus aureus; conditions: for IC50: Staphylococcus aureus
# Description: (§2) Wild-type S. aureus strain (Pig1), isolated from the skin of a child with atopic dermatitis. Streptococcus pyogenes strain 5448 is a well-characterized serotype M1T1 clinical isolate. CD1 and C57Bl/6 mice were purchased from Charles River. The gp91^Phos−/− mice were bred at the Veteran's Administration Medical Center, San Diego and maintained on trimethoprim/sulfamethoxazole prophylaxis until 3 d prior to experiments. S. aureus and S. pyogenes were propagated in Todd-Hewitt broth (THB) or on THB agar (Difco, Detroit, Mich.). Unless otherwise indicated, all experiments were performed with bacteria derived from S. aureus 36-48 h stationary phase cultures or S. pyogenes 24 h stationary phase cultures, a point when pigmentation phenotypes were readily apparent.
# A series of known SQS inhibitors were tested for inhibition of staphyloxanthin biosynthesis.
# [4] = test system: S. aureus; test: Whole blood killing assay; assay type: cell-based, Staphylococcus aureus
# Description: Bacteria were washed twice in PBS, diluted to an inoculum of 10^4 cfu in 25 μl PBS, and mixed with 75 μl of freshly drawn human or mouse blood in heparinized tubes. The tubes were incubated at 37° C. for 4 h with agitation, at which time dilutions were plated on THA for enumeration of surviving cfu.
# [5] = test system: NCI-H460; test: Growth of human cell line NCI-H460; assay type: cell-based
# Description: (§3) Inhibition of staphyloxanthin biosynthesis by formula III could represent a purely virulence factor-based therapy for S. aureus infection. […] However, after incubation with 100 μM formula III, the resulting non-pigmented S. aureus were ˜15-fold more susceptible to killing by 1.5% hydrogen peroxide and ˜4-fold less able to survive in freshly isolated human whole blood than were normally pigmented S. aureus treated with PBS control. As expected, formula III had no effect on the growth of three human cell lines (MCF-7, NCI-H460 and SF-268) since there only cholesterol biosynthesis is targeted, and cholesterol is generally abundant in serum (or diet).
# [6] = molecular target: T1, CrtM (dehydrosqualene synthase) (Staphylococcus aureus, UniProt A9JQL9); test: Recombinant CrtM enzyme inhibition; assay type: biochemical, S. aureus
# T1 construct: made in house; host or cells: E. coli
# T1 sequence (A9JQL9 1-287): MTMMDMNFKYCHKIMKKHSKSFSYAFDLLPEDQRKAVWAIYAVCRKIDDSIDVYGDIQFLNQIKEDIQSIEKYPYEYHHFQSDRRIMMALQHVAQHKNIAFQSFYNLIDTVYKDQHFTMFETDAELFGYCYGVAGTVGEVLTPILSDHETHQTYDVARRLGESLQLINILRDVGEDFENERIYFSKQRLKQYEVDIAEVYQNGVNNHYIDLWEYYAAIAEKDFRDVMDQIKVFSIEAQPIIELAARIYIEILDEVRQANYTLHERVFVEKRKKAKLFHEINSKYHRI
# Description: A series of known SQS inhibitors were tested for inhibition of staphyloxanthin biosynthesis. […] Since Formula III (and its analogs) have been advanced through Phase II human clinical trials as cholesterol-lowering agents, the agent is clearly of potential interest as a new lead compound inhibiting staphyloxanthin virulence factor formation in S. aureus.
# [7] = test system: S. aureus; test: In vivo mouse model of S. aureus skin infection
# Description: Ten to 16 week old CD-1 or gp91^Phox−/− mice were injected subcutaneously in one flank (chosen randomly) with the bacterial test strain, and simultaneously in the opposite flank with a different strain for direct comparison. Bacterial cultures were washed, diluted and resuspended in PBS mixed 1:1 with sterile Cytodex beads (Amersham) at the specified inoculum, following an established protocol for generating localized S. aureus and S. pyogenes subcutaneous infection. Lesion size, as assessed by the maximal length×width of the developing ulcers, was recorded daily. Cumulative lesion size represents the total sum of lesion sizes from all animals in each treatment group on a given day. At day 8 (S. aureus) or day 5 (S. pyogenes), animals were euthanized, skin lesions excised, homogenized in PBS, and plated on THA for quantitative culture.
# [8] = test system: S. aureus; test: Systemic (intraperitoneal) S. aureus challenge in mice; assay type: in vivo, mouse
# Description: Here cfu counts are measured in the kidneys.
# 0/6 mice treated with the compound of Formula III had detectable bacteria in either organ.
# Given the in vitro abilities of formula III treatment to increase S. aureus susceptibility to oxidants and blood (neutrophil-mediated) clearance, in vivo testing was performed. Under intraperitoneal challenge one group of mice (n=14) was treated with […] b.i.d. (days −1, 0, 1 and 2), and a second group (n=13) with equivalent volume injections of PBS control.
# [9] = test system: S. aureus; test: Hydrogen peroxide susceptibility assay; assay type: cell-based, Staphylococcus aureus; conditions: after incubation with 100 μM; vs PBS control
# Description: as §1
# [10] = test system: S. aureus; test: S. aureus growth inhibition in culture; assay type: cell-based, Staphylococcus aureus
# Description: The compound of Formula III was prepared as described in Magnin et al., α-Phosphonosulfonic acids: Potent and selective inhibitors of squalene synthase, J. Med. Chem. 39 (1996) 657-660, and tested in S. aureus growth inhibition and in pigment formation.
# as §2
# Inhibition of staphyloxanthin biosynthesis by formula III could represent a purely virulence factor-based therapy for S. aureus infection. […]
# [11] = test system: MCF-7; test: Growth of human cell line MCF-7; assay type: cell-based
# Description: as §3
# [12] = test system: SF-268; test: Growth of human cell line SF-268; assay type: cell-based
# Description: as §3
compound,measurement,setting,value
"CCCC(C(=O)OCCN(CC)CC)(c1ccccc1)c1ccccc1 [SKF 525-A, 2-diethylaminoethyl-2,2-diphenyl-valerate, reference compound]",pigment formation in S. aureus (previously shown),[1],inhibit pigment formation
same,susceptibility to singlet oxygen killing,[2]; WT S. aureus (FIG. 4b),dose-dependent increase
same,effect on oxidant susceptibility of ΔCrtM mutant,[2]; ΔCrtM mutant control,no significant effects
same,pigment production in WT S. aureus,[3]; WT strain grown in presence of agent (FIG. 4a),dose-dependent decrease
same,ability of WT S. aureus to survive in human whole blood,[4]; WT S. aureus (FIG. 4c),decrease
same,effect on blood survival of ΔCrtM mutant,[4]; ΔCrtM mutant control,no significant effects
O=P([O-])([O-])C(CCCc1cccc(Oc2ccccc2)c1)S(=O)(=O)[O-].[K+].[K+].[K+] (racemic) [Formula III],effect on growth of human cell line,[5],no effect
same,IC50,[6]; S. aureus enzyme expressed in E. coli,0.6 µM
same,Ki,[6]; corresponding to the IC50,~0.0015 µM
same,lesion size,[7]; 200 μM (FIG. 9A),major decrease
same,ill effects in mice,[7]; 200 μM or 1000 μM,no apparent ill effects
same,lesion size,[7]; 1000 μM (FIG. 9B),major decrease
same,effect on pigment formation,[3],potent effect
same,IC50,"[3]; 48 h, after 2 days at 37° C. with shaking (Table 1 title), read-out: IC50 (concentration for 50% pigment formation)",~2 µM
same,IC50,"[3]; read-out: IC50, inhibition of staphyloxanthin biosynthesis",~1 µM
same,mice with cfus below the detection threshold (kidneys),"[8]; 0.5 mg b.i.d. days −1, 0, 1, 2, sacrifice at 72 h",8/13
same,S. aureus bacterial counts in the kidneys vs control group,"[8]; 0.5 mg b.i.d. days −1, 0, 1, 2, sacrifice at 72 h, P<0.001",significantly lower
same,mice with detectable bacteria in the spleen,[8]; after 4 days (FIG. 12A),0/6
same,mice with detectable bacteria in the kidneys,[8]; after 4 days (FIG. 12B),0/6
same,increase in susceptibility to killing by 1.5% hydrogen peroxide,[9],~15 fold
same,effect on cell growth,[10]; S. aureus growth inhibition,no detectable effect
same,effect on S. aureus growth characteristics or survival in culture,"[10]; up to 2 mM, through 48 hr",did not affect
same,effect on growth of human cell line,[11],no effect
same,"ED50, whole blood killing of S. aureus",[4]; FIG. 8,~20 µM
same,decrease in ability to survive in freshly isolated human whole blood,"[4]; after incubation with 100 μM, vs PBS control",~4 fold
same,enhancement in whole blood killing of S. aureus,[4]; at 40 μM (FIG. 8),~3 fold
same,effect on growth of human cell line,[12],no effect
